Format in all cases: functional
Assay [1] has as its system Rattus norvegicus. The assay is described as follows: Effect on mean arterial blood pressure in SHR rat at the dose of 10 mg/kg i.v. The following applies: route intravenous.
The species entered for the next assay is Oryctolagus cuniculus. As to the kind of experiment: Compound did not aggregate rabbit platelet at concentration of 1.8E-5 M.
The test system of assay [2] is Rattus norvegicus. As to the kind of experiment: Effect on mean arterial blood pressure in SHR rat at the dose of 0.3 mg/kg i.v. The following applies: route intravenous.

For `CCCCCCCCCCCCCCCCOCC(CCS(=O)(=O)CCC[N+](C)(C)C)OC(C)=O.[Cl-]` (stereo not drawn), the Blood pressure with Rattus norvegicus [1] came out at 20 mmHg. Consider `CCCCCCCCCCCCCCCCOCC(COP(=O)([O-])OCC[N+](C)(C)C)OC(C)=O` (stereo not drawn) [PLATELET ACTIVATING FACTOR], for which, in the assay filed under Oryctolagus cuniculus, the Activity entry was “Did not aggregate rabbit platelet at concentration of 1.8E-5 M”. The compound further came in with a Blood pressure in the assay with Rattus norvegicus [2] of 20 mmHg.

Values taken from ChEMBL document CHEMBL1123053, “Analogues of platelet activating factor. 3. Replacement of the phosphate moiety with a sulfonylbismethylene group” (1985).
